The source of these data is patent US9499530B2 (HANGZHOU MINSHENG INSTITUTES FOR PHARMA RESEARCH, priority 2011, dated 2016).

“Also recorded” adds a separate entry of the source. Bounds are passed on as bounds.

The term IC50 denotes the concentration needed to halve the response being measured.

Data set [1] concerns the target EGFR (Epidermal Growth Factor Receptor 1) (Homo sapiens, UniProt P00533). Put plainly: ELISA protein tyrosine kinase inhibition, EGFR. It is filed as biochemical. Conditions: for IC50: ELISA, Poly(Glu, Tyr) 4:1 substrate, ATP 5 μM, test samples at 10-5 mol/l, read-out: EGFR inhibitory activity (IC50 class). The text has this: (§1) Determining the Effect of Test Samples at a Concentration of 10-5 Mol/l on the Activity of the Substrate Phosphoryation Catalyzed by EGFR (Epidermal Growth Factor Receptor 1), ErbB-2 (Epidermal Growth Factor Receptor 2), ErbB-4, KDR (Vascular Endothelial Growth Factor Receptor 2) Protein Tyrosine Kinases at Molecular Level
(§2) Enzyme-Linked Immunosorbent Assay (ELISA)
(§3) Main instrument: wavelength-tunable microplate reader (VERSAmax).
(§4) Main reagents: kinase reaction substrate Poly(Glu, Tyr) 4:1 from Sigma; anti-phosphotyrosine monoclonal antibody PY99 from Santa Cruz; horseradish peroxidase-labeled goat anti-mouse IgG from Calbiochem; ATP, DTT, OPD from Amresco, and ELISA plate from Corning.
(§5) Poly(Glu, Tyr)4:1 as an enzyme substrate was diluted by potassium ion-free PBS into 20 μg/ml, and an ELISA plate was coated and subjected to reaction for 12-16 h at 37° C. After the liquid in wells was removed, the plate was washed three time by T-PBS, 5 min for each time. The ELISA plate was then dried in an oven at 37° C. The coated wells were added with the test samples: the test samples were prepared for a stock solution with a concentration of 1×10^−2M in DMSO. The aliquot solution was stored at −20° C., and diluted to the desired concentration with reaction buffer before use. The resulting solution was added into the wells so that the final concentration of 10-5 mol/l in 100 μL reaction system can be obtained. At the same time, a positive control well was set up and a positive control compound Su11248 was added. ATP and test tyrosine kinases were added: ATP solution diluted with reaction buffer was added (the final concentration of ATP is 5 μM). Finally, the test tyrosine kinases solution diluted with reaction buffer was added. The total volume of the reaction system was […]. Meanwhile, a negative control well and a control well without enzyme were set up. The reaction system was placed in a wet box, and shaked for 1 hour at 37° C., shielding from light. After the reaction was complete, the plate was washed by T-PBS three times. Antibody PY99 was added at 100 μL/well; and the plate was shaked for 30 min at 37° C. After the reaction was complete, the plate was washed with T-PBS three times. Horseradish peroxidase-labeled goat anti-mouse IgG was added at 100 μL/well, and the plate was shaked for 30 min at 37° C. The plate was washed with T-PBS three times. OPD developing liquid was added at 100 μL/well, and reacted for 1-10 min at room temperature, shielding from light. 50 μL of 2 M H2SO4 was added to stop the reaction. A492 value was determined using wavelength-tunable microplate reader. The inhibition ratio of the samples can be calculated by the following equation: […]
Background: An ELISA detects its analyte on a solid surface through an enzyme-linked reagent.

The next data set has as its target ErbB-4 (Homo sapiens, UniProt Q15303). Put plainly: ELISA protein tyrosine kinase inhibition, ErbB-4. Format: biochemical. Conditions: for IC50: ELISA, Poly(Glu, Tyr) 4:1 substrate, ATP 5 μM, test samples at 10-5 mol/l, read-out: ErbB4 inhibitory activity (IC50 class).
From the text: as §1, §2, §3, §4, §5

Data set [2] has as its target ErbB-2 (Epidermal Growth Factor Receptor 2) (Homo sapiens, UniProt P04626). Kind of data set: ELISA protein tyrosine kinase inhibition, ErbB-2. Format: biochemical. Conditions: Poly(Glu, Tyr) 4:1 substrate, ATP 5 μM, test samples at 10-5 mol/l, read-out: ErbB2 inhibitory activity (IC50 class).
From the text: as §1, §2, §3, §4, §5

Data set [3] concerns the target KDR (Vascular Endothelial Growth Factor Receptor 2) (Homo sapiens, UniProt P35968). Kind of data set: ELISA protein tyrosine kinase inhibition, KDR. Particulars: for IC50: ELISA, Poly(Glu, Tyr) 4:1 substrate, ATP 5 μM, test samples at 10-5 mol/l, read-out: KDR inhibitory activity (IC50 class). It is filed as biochemical.
From the text: as §1, §2, §3, §4, §5

In data set [4] the test system is human lung cancer A549 xenograft. Put plainly: Growth inhibition of A549 xenograft in nude mice. It is filed as in vivo. Conditions: for growth inhibition of human lung cancer A549 compared with positive control lapatinib (in words): xenograft in nude mice, 200 mg/kg. The text has this: Objective of the test: Determining the inhibition of some compounds of the present invention to the growth of human lung cancer A549 transplanted into nude mice and the action intensity thereof.
1. Human lung cancer A549 xenograft in nude mice, which was set up by subcutaneously transplantion of the human lung cancer A549 cell lines into right axillary fossa of nude mice. The amount of inoculation is 2×10^6 cells/mouse. Xenograft inoculated into the nude mice was passaged for 3 generations before use.
2. The solvent used in the experiments is: 0.5% of hydroxypropylmethyl cellulose and 0.1% of Tween-80.
3. Vigorous growing tumor tissues were selected to be chopped into approximately 1 mm^3. Under sterile conditions, the tumor tissue blocks were subcutaneously transplanted into right axillary fossa of nude mice. The diameters of the xenograft in nude mice were measured with a vernier caliper. When tumors reached approximately 100-300 mm^3 in size, the animals were randomly divided into groups, wherein there are 12 animals in solvent control group, and 6 animals per group in the other groups. […] The administered dosages were both 200 mg/kg, 5 times per week for consecutive four weeks. The diameters of the tumors were measured twice per week. The negative control group was intragastricly administrated the same amount of solvent. After the experiment, the mice were sacrificed. The tumors were surgically stripped and weighed. The tumor volume (TV) was calculated by the following equation:
[formula] in which a and b represents for the length and the width respectively.
According to the measured results, the relative tumor volume (RTV) was calculated. The calculation equation was: RTV=Vt/V0, wherein V0 is the tumor volume measured during cage administration (i.e. d0), Vt is the tumor volume of each measurement. The evaluation index of anti-tumor activity was the relative tumor growth ratio T/C (%), which was calculated by the following equation: […]
TRTV: treatment group's RTV; CRTV: negative control group's RTV.
A general note: Xenograft models place foreign cells or tissue in a host animal.

Chain of KDR (Vascular Endothelial Growth Factor Receptor 2) (P35968 20-1356): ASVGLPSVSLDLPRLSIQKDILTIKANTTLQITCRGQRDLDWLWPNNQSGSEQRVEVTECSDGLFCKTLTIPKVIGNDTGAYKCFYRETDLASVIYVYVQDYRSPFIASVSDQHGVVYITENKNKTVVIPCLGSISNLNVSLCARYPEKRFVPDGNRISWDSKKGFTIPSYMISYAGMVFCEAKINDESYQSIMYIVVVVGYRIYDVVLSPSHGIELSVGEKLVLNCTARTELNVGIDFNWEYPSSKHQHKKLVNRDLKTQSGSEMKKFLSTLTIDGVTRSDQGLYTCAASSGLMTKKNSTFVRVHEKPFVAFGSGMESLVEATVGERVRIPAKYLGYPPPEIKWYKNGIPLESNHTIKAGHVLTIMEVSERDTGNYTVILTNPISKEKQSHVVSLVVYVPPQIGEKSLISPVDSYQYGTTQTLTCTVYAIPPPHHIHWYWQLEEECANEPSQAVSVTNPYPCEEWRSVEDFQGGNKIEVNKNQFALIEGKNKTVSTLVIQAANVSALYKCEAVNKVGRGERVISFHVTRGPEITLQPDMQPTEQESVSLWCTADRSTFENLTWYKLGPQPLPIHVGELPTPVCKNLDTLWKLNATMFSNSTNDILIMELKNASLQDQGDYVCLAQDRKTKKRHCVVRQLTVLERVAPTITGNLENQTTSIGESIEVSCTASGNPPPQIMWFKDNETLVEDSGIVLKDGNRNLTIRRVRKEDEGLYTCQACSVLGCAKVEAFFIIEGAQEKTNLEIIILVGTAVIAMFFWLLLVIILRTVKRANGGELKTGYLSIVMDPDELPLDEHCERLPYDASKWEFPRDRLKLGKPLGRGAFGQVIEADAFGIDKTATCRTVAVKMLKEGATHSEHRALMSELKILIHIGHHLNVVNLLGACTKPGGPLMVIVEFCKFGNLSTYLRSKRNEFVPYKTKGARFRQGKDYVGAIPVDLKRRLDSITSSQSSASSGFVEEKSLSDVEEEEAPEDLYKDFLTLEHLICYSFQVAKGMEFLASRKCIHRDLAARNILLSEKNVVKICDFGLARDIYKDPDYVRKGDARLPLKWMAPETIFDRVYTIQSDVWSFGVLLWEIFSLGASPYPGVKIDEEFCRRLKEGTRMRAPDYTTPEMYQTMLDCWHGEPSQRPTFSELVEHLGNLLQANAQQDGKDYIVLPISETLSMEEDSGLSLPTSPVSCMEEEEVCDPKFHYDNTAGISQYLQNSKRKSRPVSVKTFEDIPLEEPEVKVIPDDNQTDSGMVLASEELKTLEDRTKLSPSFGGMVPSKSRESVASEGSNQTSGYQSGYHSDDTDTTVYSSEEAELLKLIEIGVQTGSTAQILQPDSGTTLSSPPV
Chain of ErbB-4 (Q15303 26-1308): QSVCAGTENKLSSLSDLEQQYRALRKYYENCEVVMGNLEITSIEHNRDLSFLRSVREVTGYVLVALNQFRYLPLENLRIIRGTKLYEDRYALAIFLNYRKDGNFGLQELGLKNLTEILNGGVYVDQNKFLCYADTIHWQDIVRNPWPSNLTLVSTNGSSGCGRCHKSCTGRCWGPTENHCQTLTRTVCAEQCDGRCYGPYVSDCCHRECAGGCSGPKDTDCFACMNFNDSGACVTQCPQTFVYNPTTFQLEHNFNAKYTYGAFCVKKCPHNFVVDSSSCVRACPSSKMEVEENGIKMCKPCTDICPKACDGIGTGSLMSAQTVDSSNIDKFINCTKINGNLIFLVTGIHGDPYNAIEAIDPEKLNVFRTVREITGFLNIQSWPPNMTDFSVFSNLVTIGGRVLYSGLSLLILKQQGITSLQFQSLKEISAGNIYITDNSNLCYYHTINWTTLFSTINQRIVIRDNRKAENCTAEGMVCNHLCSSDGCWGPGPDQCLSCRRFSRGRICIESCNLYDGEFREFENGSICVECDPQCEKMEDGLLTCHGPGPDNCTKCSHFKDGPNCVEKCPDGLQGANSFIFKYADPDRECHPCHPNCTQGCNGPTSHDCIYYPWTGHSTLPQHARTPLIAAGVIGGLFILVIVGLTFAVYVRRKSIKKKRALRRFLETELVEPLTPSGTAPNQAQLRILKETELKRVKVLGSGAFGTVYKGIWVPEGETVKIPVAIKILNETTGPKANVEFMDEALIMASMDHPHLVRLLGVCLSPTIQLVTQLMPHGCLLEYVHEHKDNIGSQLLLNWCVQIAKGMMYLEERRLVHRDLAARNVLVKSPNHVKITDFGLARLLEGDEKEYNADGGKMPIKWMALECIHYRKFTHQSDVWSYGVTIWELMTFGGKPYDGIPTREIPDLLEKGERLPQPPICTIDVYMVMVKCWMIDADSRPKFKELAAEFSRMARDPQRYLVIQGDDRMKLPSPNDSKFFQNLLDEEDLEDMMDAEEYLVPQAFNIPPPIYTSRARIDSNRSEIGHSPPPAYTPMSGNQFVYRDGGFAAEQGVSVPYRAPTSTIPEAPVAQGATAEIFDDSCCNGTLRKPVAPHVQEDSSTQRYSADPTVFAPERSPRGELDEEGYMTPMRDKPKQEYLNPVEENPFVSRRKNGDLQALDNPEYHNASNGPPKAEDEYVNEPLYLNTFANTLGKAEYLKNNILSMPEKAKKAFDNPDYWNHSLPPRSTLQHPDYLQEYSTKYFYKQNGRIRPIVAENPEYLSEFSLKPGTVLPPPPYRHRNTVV

As to `CC(=O)OCCNCc1ccc(-c2ccc3ncnc(Nc4ccc(OCc5cccc(F)c5)c(Cl)c4)c3c2)o1`, the IC50 (in data set [1]; on ErbB-4; in data set [2]; in data set [3]) was under 10 µM throughout.
On to `OCCCCNCc1ccc(-c2ccc3ncnc(Nc4ccc(OCc5cccc(F)c5)c(Cl)c4)c3c2)o1` [MS1, N-(3-chloro-4-((3-fluorobenzyl)oxy)phenyl)-6-(5-(((4-hydroxybutyl)amino)methyl)-2-furyl)-4-quinazolinamine], for which, in data set [3], the “inhibitory activity against KDR (in words)” value is given as “better inhibitory activity; also recorded: higher inhibitory activity”.
Consider `OCC(CO)NCc1ccc(-c2ccc3ncnc(Nc4ccc(OCc5cccc(F)c5)c(Cl)c4)c3c2)o1` [MS6, N-(3-chloro-4-((3-fluorobenzyl)oxy)phenyl)-6-(5-((2-(1,3-dihydroxypropyl)amino)methyl)-2-furyl)-4-quinazolinamine], for which the “inhibitory activity against KDR (in words)” value in data set [3] is listed as “better inhibitory activity; also recorded: higher inhibitory activity”. In addition, the “growth inhibition of human lung cancer A549 compared with positive control lapatinib (in words)” value in data set [4] is “better effective inhibition; also recorded: better growth inhibition effect”.
On to `OCCN(CCO)Cc1ccc(-c2ccc3ncnc(Nc4ccc(OCc5cccc(F)c5)c(Cl)c4)c3c2)o1` [MS18, N-(3-chloro-4-((3-fluorobenzyl)oxy)phenyl)-6-(5-((bis(2-hydroxyethyl)amino)methyl)-2-furyl)-4-quinazolinamine], for which the “inhibitory activity against KDR (in words)” value in data set [3] is recorded as “better inhibitory activity; also recorded: higher inhibitory activity”.
In the case of `OCCNCc1ccc(-c2ccc3ncnc(Nc4ccc(OCc5cccc(F)c5)c(Cl)c4)c3c2)o1` [MS27, N-(3-chloro-4-((3-fluorobenzyl)oxy)phenyl)-6-(5-(((2-hydroxyethyl)amino)methyl)-2-furyl)-4-quinazolinamine], the “inhibitory activity against KDR (in words)” value in data set [3] is listed as “better inhibitory activity; also recorded: higher inhibitory activity”. For the same molecule, the “growth inhibition of human lung cancer A549 compared with positive control lapatinib (in words)” value in data set [4] was “better effective inhibition; also recorded: better growth inhibition effect”.
As for `OCC(O)CNCc1ccc(-c2ccc3ncnc(Nc4ccc(OCc5cccc(F)c5)c(Cl)c4)c3c2)o1` (centres unmarked) [MS31, N-(3-chloro-4-((3-fluorobenzyl)oxy)phenyl)-6-(5-(1-(2,3-dihydroxypropyl)amino)methyl-2-furyl)-4-quinazolinamine], the “inhibitory activity against KDR (in words)” value in data set [3] was “better inhibitory activity; also recorded: higher inhibitory activity”.
As to `Fc1ccc(Nc2ncnc3ccc(-c4ccc(CNCCC5=CCCCC5)o4)cc23)cc1Cl` [MS41, N-(3-chloro-4-fluorophenyl)-6-(5-(((2-(cyclohexenyl)ethyl)amino)methyl)-2-furyl)-4-quinazolinamine], the IC50 in data set [2] was under 10 µM; in data set [3] it was over 10 µM.
Consider `OCCCNCc1ccc(-c2ccc3ncnc(Nc4ccc(OCc5cccc(F)c5)c(Cl)c4)c3c2)o1` [MS42], for which, in data set [3], the “inhibitory activity against KDR (in words)” value is given as “better inhibitory activity; also recorded: higher inhibitory activity”.
Take `Fc1cccc(COc2ccc(Nc3ncnc4ccc(-c5ccc(CNCC6CCCCC6)o5)cc34)cc2Cl)c1` [MS 7, N-(3-chloro-4-((3-fluorobenzyl)oxy)phenyl)-6-((5-((cyclohexylmethyl)amino)methyl)-2-furyl)-4-quinazolinamine]: the IC50 in data set [1] is under 10 µM; in data set [2], over 10 µM; in data set [3], under 10 µM.
Consider `Fc1cccc(COc2ccc(Nc3ncnc4ccc(-c5ccc(CNCC6CCCC(Cl)C6)o5)cc34)cc2Cl)c1` (centres unmarked) [MS 9, N-(3-chloro-4-((3-fluorobenzyl)oxy)phenyl)-6-(5-((((3-chlorocyclohexyl)methyl)amino)methyl)-2-furyl)-4-quinazolinamine], for which the IC50 in data set [1] is under 10 µM; in data set [2] it was over 10 µM; in data set [3], under 10 µM.
For `Fc1cccc(COc2ccc(Nc3ncnc4ccc(-c5ccc(CNCCc6cccc(Cl)c6)o5)cc34)cc2Cl)c1` [MS 20, N-(3-chloro-4-((3-fluorobenzyl)oxy)phenyl)-6-(5-(((2-(3-chlorophenyl)ethyl)amino)methyl)-2-furyl)-4-quinazolinamine], the IC50 was under 10 µM in data set [1], under 10 µM in data set [2] and over 10 µM in data set [3].
`CSCCC(NCc1ccc(-c2ccc3ncnc(Nc4ccc(OCc5cccc(F)c5)c(Cl)c4)c3c2)o1)C(=O)O` (centres unmarked) [MS 26, N-(3-chloro-4-((3-fluorobenzyl)oxy)phenyl)-6-(5-((((1-carboxy-3-methylthio)propyl)amino)methyl)-2-furyl)-4-quinazolinamine]: the IC50 in data set [1] and in data set [2] was under 10 µM each time. Further, the “growth inhibition of human lung cancer A549 compared with positive control lapatinib (in words)” value in data set [4] was “better effective inhibition”.
As for `CCCNCc1ccc(-c2ccc3ncnc(Nc4ccc(F)c(Cl)c4)c3c2)o1` [MS 36, N-(3-chloro-4-fluorophenyl)-6-(5-(((propyl)amino)methyl)-2-furyl)-4-quinazolinamine], the IC50 in data set [2] was under 10 µM; in data set [3] it was over 10 µM. Also, the “TV (mm^3) End” value in data set [4] (A549 xenograft, 200 mg/kg intragastric, 5 times per week for four weeks, end) was 770.3 ± 212.8^▴ mm^3. For the same molecule, the “TV (mm^3) Start” value in data set [4] (A549 xenograft, 200 mg/kg intragastric, start of dosing) stood at 155.5 ± 72.8 mm^3. Moreover, the “T/C (%)” value in data set [4] (A549 xenograft, relative tumor growth ratio, 200 mg/kg intragastric, 5 times per week for four weeks) came out at 36.1%. The “Weight (g) End” value in data set [4] (nude mice with A549 xenograft, 200 mg/kg intragastric, 5 times per week for four weeks, end) turned out to be 25.0 ± 1.8 g. Further, the “Weight (g) Start” value in data set [4] (nude mice with A549 xenograft, 200 mg/kg intragastric, start of dosing) is on record as 24.5 ± 1.8 g. Further, in data set [4], the “growth inhibition of human lung cancer A549 compared with positive control lapatinib (in words)” value is recorded as “better growth inhibition effect”.
On to `CC=CCNCc1ccc(-c2ccc3ncnc(Nc4ccc(F)c(Cl)c4)c3c2)o1` [MS 39, N-(3-chloro-4-fluorophenyl)-6-(5-(((2-butenyl)amino)methyl)-2-furyl)-4-quinazolinamine], for which the IC50 in data set [2] is under 10 µM; in data set [3] it was over 10 µM.
Turning to “N-(3-chloro-4-((3-fluorobenzyl)oxy)phenyl)-6-(5-((4-methylpiperazinyl)methyl)-2-pyrrolidinyl)-4-quinazolinamine [MS 34]”, the “inhibitory activity against EGFR (in words)” value in data set [1] is recorded as “better inhibitory activity”. The IC50 (in data set [1]; at ErbB-4; in data set [2]) was under 10 µM throughout. Also, the “inhibition of c-ErbB4/HER4 (in words)” value at ErbB-4 is “very good inhibition”.
